Like-named read-outs stand apart in the source and are kept apart here.
Key:
JAK1 = JAK1 (Homo sapiens (Human), UniProt P23458); test: Jak Biochemical HTRF Assay (JAK1); conditions: recombinant GST-tagged catalytic domain, [ATP] 31.8 μM, unit not given (compound concentrations tested given in nM)
Description: Jak Biochemical HTRF Assay Protocol
Subsequent reagent additions employed an Agilent Bravo.

JAK2 = JAK2 (Homo sapiens (Human), UniProt O60674); test: Jak Biochemical HTRF Assay (JAK2)
Description: The ability of compounds to inhibit the activity of JAK1, JAK2, JAK3, and TYK2 was measured using a recombinant purified GST-tagged catalytic domain for each enzyme (Invitrogen JAK1 #M4290, JAK2 #M4290, JAK3 #M4290, TYK2 #M4290) in an HTRF format biochemical assay. […] Subsequent reagent additions employed an Agilent Bravo. […] After equilibration, 2 μL of 10×ATP in 1× assay buffer was added to initiate the kinase reaction and the plates were shaken and then incubated at room temperature for 120 minutes. […] After normalization to untreated controls, the percent inhibition of the HTRF signal at each compound concentration was calculated. The plot of percent inhibition versus the log of compound concentration was fit with a 4-parameter dose response equation to calculate IC50 values.
Final reaction conditions were:

[1] = JAK2 IC50, recombinant GST-tagged catalytic domain, [ATP] 8.5 μM, unit not given (compound concentrations tested given in nM)
[2] = read-out: JAK2 IC50, recombinant GST-tagged catalytic domain, [ATP] 8.5 μM, unit not given (compound concentrations tested given in nM)

Chain of JAK1 (P23458 875-1153): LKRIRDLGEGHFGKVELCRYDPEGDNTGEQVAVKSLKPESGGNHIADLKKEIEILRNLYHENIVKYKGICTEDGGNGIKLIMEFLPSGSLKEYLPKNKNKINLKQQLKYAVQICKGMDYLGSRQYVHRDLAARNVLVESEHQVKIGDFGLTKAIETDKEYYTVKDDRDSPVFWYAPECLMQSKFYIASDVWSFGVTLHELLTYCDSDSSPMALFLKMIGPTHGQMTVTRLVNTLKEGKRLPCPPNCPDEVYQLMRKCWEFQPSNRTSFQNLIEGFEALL
Chain of JAK2 (O60674 849-1124): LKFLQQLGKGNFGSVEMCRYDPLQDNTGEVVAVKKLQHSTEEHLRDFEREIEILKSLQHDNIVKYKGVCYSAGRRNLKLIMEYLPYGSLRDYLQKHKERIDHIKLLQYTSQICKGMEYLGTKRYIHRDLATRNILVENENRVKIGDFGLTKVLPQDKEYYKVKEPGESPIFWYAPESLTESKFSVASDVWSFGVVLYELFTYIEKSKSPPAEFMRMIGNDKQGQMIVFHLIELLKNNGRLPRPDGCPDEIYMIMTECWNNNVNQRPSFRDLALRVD

Structure (SMILES) | IC50 (JAK1) | IC50 (JAK2; [1]) | IC50 (JAK2; [2])
N#C[C@H]1CCOC[C@@H]1n1nc(Nc2ccc(C(N3CCSCC3)C(F)(F)F)cc2)c2c(=O)[nH]ccc21 (single isomer, unassigned) [Example 2-6, (3R,4S)-3-[4-oxo-3-({4-[(1R or 1S)-2,2,2-trifluoro-1-thiomorpholin-4-ylethyl]phenyl}amino)-4,5-dihydro-1H-pyrazolo[4,3-c]pyridin-1-yl]tetrahydro-2H-pyran-4-carbonitrile] | 0.21 nM | 0.24 nM | 
N#C[C@H]1CCOC[C@@H]1n1nc(Nc2ccc(C3(C(F)(F)F)CCCCN3)cc2)c2c(=O)[nH]ccc21 (single isomer, unassigned) [Example 2-7, (3R,4S)-3-[4-oxo-3-({4-[(2S or 2R)-2-(trifluoromethyl)piperidin-2-yl]phenyl}amino)-4,5-dihydro-1H-pyrazolo[4,3-c]pyridin-1-yl] tetrahydro-2H-pyran-4-carbonitrile] | 0.05 nM | 0.06 nM | 
N#C[C@H]1CCOC[C@@H]1n1nc(Nc2ccc(C3(C(F)(F)F)CCCCN3)cc2)c2c(=O)[nH]ccc21 (single isomer, unassigned) [Example 2-8, (3R,4S)-3-[4-oxo-3-({4-[(2R or 2S)-2-(trifluoromethyl)piperidin-2-yl]phenyl}amino)-4,5-dihydro-1H-pyrazolo[4,3-c]pyridin-1-yl] tetrahydro-2H-pyran-4-carbonitrile] | 0.05 nM | 0.05 nM | 
C[S+]([O-])c1cc(Nc2nn([C@H]3COCC[C@@H]3C#N)c3cc[nH]c(=O)c23)ccc1F (single isomer, unassigned) [Example 3-2, (3R,4S)-3-(3-((4-fluoro-3-((S or R)-methylsulfinyl)phenyl)amino)-4-oxo-4,5-dihydro-1H-pyrazolo[4,3-c]pyridin-1-yl)tetrahydro-2H-pyran-4-carbonitrile] | 0.89 nM | 13.7 nM | 
C[S+]([O-])c1cc(Nc2nn([C@H]3COCC[C@@H]3C#N)c3cc[nH]c(=O)c23)ccc1F (single isomer, unassigned) [Example 3-3, (3R,4S)-3-(3-((4-fluoro-3-((S or R)-methylsulfinyl)phenyl)amino)-4-oxo-4,5-dihydro-1H-pyrazolo[4,3-c]pyridin-1-yl)tetrahydro-2H-pyran-4-carbonitrile] | 1.64 nM | 7.44 nM | 
C[C@H]1CN(S(=O)(=O)c2ccc(Nc3nn([C@H]4COCC[C@@H]4C#N)c4cc[nH]c(=O)c34)cc2)C[C@H](C)O1 (stereo in doubt) [Example 1-76, (3R,4S)-3-{3-[(4-{[(trans)-2,6-dimethylmorpholin-4-yl]sulfonyl}phenyl)amino]-4-oxo-4,5-dihydro-1H-pyrazolo[4,3-c]pyridin-1-yl}tetrahydro-2H-pyran-4-carbonitrile] | 0.24 nM |  | 0.82 nM
CS(=O)(=O)c1ccc(Nc2nn([C@@H]3COCC[C@H]3C#N)c3cc[nH]c(=O)c23)cc1 [Example 1-1, (3S,4R)-3-(3-((4-(methylsulfonyl)phenyl)amino)-4-oxo-4,5-dihydro-1H-pyrazolo[4,3-c]pyridin-1-yl)tetrahydro-2H-pyran-4-carbonitrile] | 7.06 nM |  | 11.5 nM
CS(=O)(=O)c1ccc(Nc2nn([C@H]3COCC[C@@H]3C#N)c3cc[nH]c(=O)c23)cc1 [Example 1-2, (3R,4S)-3-(3-((4-(methylsulfonyl)phenyl)amino)-4-oxo-4,5-dihydro-1H-pyrazolo[4,3-c]pyridin-1-yl)tetrahydro-2H-pyran-4-carbonitrile] | 0.05 nM |  | 0.35 nM
N#C[C@H]1CCOC[C@@H]1n1nc(Nc2ccccc2)c2c(=O)[nH]ccc21 [Example 1-3, (3R,4S)-3-(4-oxo-3-(phenylamino)-4,5-dihydro-1H-pyrazolo[4,3-c]pyridin-1-yl)tetrahydro-2H-pyran-4-carbonitrile] | 0.11 nM |  | 1.39 nM
CN1Cc2cc(Nc3nn([C@H]4COCC[C@@H]4C#N)c4cc[nH]c(=O)c34)ccc2S1(=O)=O [Example 1-4, (3R,4S)-3-(3-((2-methyl-1,1-dioxido-2,3-dihydrobenzo[d]isothiazol-5-yl)amino)-4-oxo-4,5-dihydro-1H-pyrazolo[4,3-c]pyridin-1-yl)tetrahydro-2H-pyran-4-carbonitrile] | 0.04 nM |  | 0.34 nM
CC(C)(C)N1Cc2cc(Nc3nn([C@H]4COCC[C@@H]4C#N)c4cc[nH]c(=O)c34)ccc2S1(=O)=O [Example 1-5, (3R,4S)-3-(3-((2-(tert-butyl)-1,1-dioxido-2,3-dihydrobenzo[d]isothiazol-5-yl)amino)-4-oxo-4,5-dihydro-1H-pyrazolo[4,3-c]pyridin-1-yl)tetrahydro-2H-pyran-4-carbonitrile] | 0.05 nM |  | 0.15 nM
CN(C)S(=O)(=O)c1ccc(Nc2nn([C@H]3COCC[C@@H]3C#N)c3cc[nH]c(=O)c23)cc1 [Example 1-6, 4-((1-((3R,4S)-4-cyanotetrahydro-2H-pyran-3-yl)-4-oxo-4,5-dihydro-1H-pyrazolo[4,3-c]pyridin-3-yl)amino)-N,N-dimethyl-benzenesulfonamide] | 0.07 nM |  | 0.21 nM
CC(C)(C)NS(=O)(=O)c1ccc(Nc2nn([C@H]3COCC[C@@H]3C#N)c3cc[nH]c(=O)c23)cc1 [Example 1-10, N-(tert-butyl)-4-((1-((3R,4S)-4-cyanotetrahydro-2H-pyran-3-yl)-4-oxo-4,5-dihydro-1H-pyrazolo[4,3-c]pyridin-3-yl)amino)benzenesulfonamide] | 0.08 nM |  | 0.21 nM
CC(C)S(=O)(=O)c1ccc(Nc2nn([C@H]3COCC[C@@H]3C#N)c3cc[nH]c(=O)c23)cc1 [Example 1-11, (3R,4S)-3-(3-((4-(isopropylsulfonyl)phenyl)amino)-4-oxo-4,5-dihydro-1H-pyrazolo[4,3-c]pyridin-1-yl)tetrahydro-2H-pyran-4-carbonitrile] | 0.09 nM |  | 0.34 nM
CN(C(C)(C)C)S(=O)(=O)c1ccc(Nc2nn([C@H]3COCC[C@@H]3C#N)c3cc[nH]c(=O)c23)cc1 [Example 1-12, N-(tert-butyl)-4-((1-((3R,4S)-4-cyanotetrahydro-2H-pyran-3-yl)-4-oxo-4,5-dihydro-1H-pyrazolo[4,3-c]pyridin-3-yl)amino)-N-methylbenzenesulfonamide] | 0.1 nM |  | 0.3 nM
CC(C)(C)S(=O)(=O)c1ccc(Nc2nn([C@H]3COCC[C@@H]3C#N)c3cc[nH]c(=O)c23)cc1 [Example 1-13] | 0.08 nM |  | 0.21 nM
CC(C)CN1Cc2ccc(Nc3nn([C@H]4COCC[C@@H]4C#N)c4cc[nH]c(=O)c34)cc2C1 [Example 1-14, (3R,4S)-3-(3-{[2-(2-methylpropyl)-2,3-dihydro-1H-isoindol-5-yl]amino}-4-oxo-4,5-dihydro-1H-pyrazolo[4,3-c]pyridin-1-yl)tetrahydro-2H-pyran-4-carbonitrile] | 0.22 nM |  | 0.41 nM
CC(C)N1Cc2ccc(Nc3nn([C@H]4COCC[C@@H]4C#N)c4cc[nH]c(=O)c34)cc2C1 [Example 1-15, (3R,4S)-3-(3-{[2-(1-methylethyl)-2,3-dihydro-1H-isoindol-5-yl]amino}-4-oxo-4,5-dihydro-1H-pyrazolo[4,3-c]pyridin-1-yl)tetrahydro-2H-pyran-4-carbonitrile] | 0.12 nM |  | 0.27 nM
COC(=N)c1cc(Nc2nn([C@H]3COCC[C@@H]3C#N)c3cc[nH]c(=O)c23)ccc1O [Example 1-16, methyl 5-({1-[(3R,4S)-4-cyanotetrahydro-2H-pyran-3-yl]-4-oxo-4,5-dihydro-1H-pyrazolo[4,3-c]pyridin-3-yl}amino)-2-hydroxybenzenecarboximidoate] | 0.36 nM |  | 5.04 nM
COc1cc(Nc2nn([C@H]3COCC[C@@H]3C#N)c3cc[nH]c(=O)c23)ccc1F [Example 1-17, (3R,4S)-3-{3-[(4-fluoro-3-methoxyphenyl)amino]-4-oxo-4,5-dihydro-1H-pyrazolo[4,3-c]pyridin-1-yl}tetrahydro-2H-pyran-4-carbonitrile] | 0.09 nM |  | 2.52 nM
N#C[C@H]1CCOC[C@@H]1n1nc(Nc2ccnc(F)c2)c2c(=O)[nH]ccc21 [Example 1-30, (3R,4S)-3-{3-[(2-fluoropyridin-4-yl)amino]-4-oxo-4,5-dihydro-1H-pyrazolo[4,3-c]pyridin-1-yl}tetrahydro-2H-pyran-4-carbonitrile] | 0.25 nM |  | 4.65 nM
N#Cc1ccc(Nc2nn([C@H]3COCC[C@@H]3C#N)c3cc[nH]c(=O)c23)cc1 [Example 1-31, (3R,4S)-3-{3-[(4-cyanophenyl)amino]-4-oxo-4,5-dihydro-1H-pyrazolo[4,3-c]pyridin-1-yl}tetrahydro-2H-pyran-4-carbonitrile] | 0.12 nM |  | 0.96 nM
N#Cc1ccc(Nc2nn([C@H]3COCC[C@@H]3C#N)c3cc[nH]c(=O)c23)cc1F [Example 1-32, (3R,4S)-3-{3-[(4-cyano-3-fluorophenyl)amino]-4-oxo-4,5-dihydro-1H-pyrazolo[4,3-c]pyridin-1-yl}tetrahydro-2H-pyran-4-carbonitrile] | 0.24 nM |  | 2.11 nM
Cc1cc(Nc2nn([C@H]3COCC[C@@H]3C#N)c3cc[nH]c(=O)c23)ccc1C(=O)N1CCC(F)(F)CC1 [Example 1-35, (3R,4S)-3-(3-((4-(4,4-difluoropiperidine-1-carbonyl)-3-methylphenyl)amino)-4-oxo-4,5-dihydro-1H-pyrazolo[4,3-c]pyridin-1-yl)tetrahydro-2H-pyran-4-carbonitrile] | 0.12 nM |  | 0.16 nM
CC(C)NC(C)(C)c1ccc(Nc2nn([C@H]3COCC[C@@H]3C#N)c3cc[nH]c(=O)c23)cc1 [Example 1-61, (3R,4S)-3-{3-[(4-{1-methyl-1-[(1-methylethyl)amino]ethyl}phenyl)amino]-4-oxo-4,5-dihydro-1H-pyrazolo[4,3-c]pyridin-1-yl}tetrahydro-2H-pyran-4-carbonitrile] | 0.3 nM |  | 0.3 nM
